Reference: PubChem BioAssay (NCI)
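Cultured in 96-well plates, cells were exposed to test compound for 48 hours across five concentrations. GI50 marks 50% less growth. The concentration for full growth arrest is given as TGI.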

What was measured:
Test in all cases: growth of human tumour cells (NCI), 48 h
[1] = system: DMS 114 small cell lung
[2] = system: UACC-257 melanoma
[3] = system: SNB-78 CNS
[4] = system: EKVX NSCLC
[5] = system: M19-MEL melanoma
[6] = system: DLD-1 colon
[7] = system: KM20L2 colon
[8] = system: A549 NSCLC
[9] = system: RXF-631 renal
[10] = system: TK-10 renal
[11] = system: HOP-18 NSCLC
[12] = system: BT-549 breast
[13] = system: HS 578T breast
[14] = system: MDA-N

Row | Compound | TGI [1] [µM] | TGI [2] [µM] | TGI [3] [µM] | TGI [4] [µM] | TGI [5] [µM] | TGI [6] [µM] | TGI [7] [µM] | TGI [8] [µM] | TGI [9] [µM] | TGI [10] [µM] | TGI [11] [µM] | GI50 [12] [µM] | TGI [12] [µM] | GI50 [13] [µM] | TGI [13] [µM] | GI50 [2] [µM] | GI50 [4] [µM] | GI50 [8] [µM] | GI50 [10] [µM] | TGI [14] [µM]
1 | CCOC(=O)c1ncoc1[C@H]1COC(C)(C)O1 | > 100 | > 100 | > 100 | > 100 | > 100 | > 100 | > 100 | > 100 | > 100 | > 100 | > 100 | – | – | – | – | – | – | – | – | –
2 | COc1ccc(/C=C2\CN(C(=O)CCN3CCC(=NO)CC3)C/C(=C\c3ccc(OC)cc3)C2=O)cc1 | – | 7.57 | – | 17.6 | – | – | – | 11.7 | – | 10.4 | – | 2.17 | 6.08 | 3.64 | 18.6 | 2.65 | 4.04 | 3.28 | 2.86 | –
3 | CC(=O)Oc1ccccc1[C@H]1CC(=O)C[C@H](c2ccccc2OC(C)=O)C12C(=O)c1ccccc1C2=O | – | – | – | – | – | – | – | – | – | – | – | – | 84.5 | – | > 100 | – | – | – | – | 47.3
